Source: paper PMC4826283 (Journal of nuclear medicine : official publication, Society …, 2014)

System: kappa opioid receptor (KOR)
Test: in vivo PET receptor occupancy
Assay type: cell-based, Macaca mulatta
Settings: rhesus monkey, brain

## Cc1cc(C)cc([C@@H]2CCCN2Cc2ccc(Oc3ccc(C(N)=O)cc3F)cc2)c1 [LY2456302]
  % occupancy at 0.3 mg/kg: 93 % occupancy at 0.3 mg/kg
